Test results as given in patent US9399623B2, “Quinoline derivatives and their use in neurodegenerative diseases” (Merck Patent GmbH, priority 2014, dated 2016).
pIC50: −log10 of the molar value.

Columns and labels:
P2X7 [1] = target: T1, P2X7 (Homo sapiens, UniProt Q99572); assay: Pore permeation assay (YO PRO dye uptake, BzATP-induced); type: cell-based; design: expressed in transfected cells; host or cells: HEK293; details: HEK293 transfected with human P2X7 receptor; YO PRO dye 1 uM, BzATP 10 uM; read-out: hP2X7 IC50
T1 sequence (Q99572 1-595): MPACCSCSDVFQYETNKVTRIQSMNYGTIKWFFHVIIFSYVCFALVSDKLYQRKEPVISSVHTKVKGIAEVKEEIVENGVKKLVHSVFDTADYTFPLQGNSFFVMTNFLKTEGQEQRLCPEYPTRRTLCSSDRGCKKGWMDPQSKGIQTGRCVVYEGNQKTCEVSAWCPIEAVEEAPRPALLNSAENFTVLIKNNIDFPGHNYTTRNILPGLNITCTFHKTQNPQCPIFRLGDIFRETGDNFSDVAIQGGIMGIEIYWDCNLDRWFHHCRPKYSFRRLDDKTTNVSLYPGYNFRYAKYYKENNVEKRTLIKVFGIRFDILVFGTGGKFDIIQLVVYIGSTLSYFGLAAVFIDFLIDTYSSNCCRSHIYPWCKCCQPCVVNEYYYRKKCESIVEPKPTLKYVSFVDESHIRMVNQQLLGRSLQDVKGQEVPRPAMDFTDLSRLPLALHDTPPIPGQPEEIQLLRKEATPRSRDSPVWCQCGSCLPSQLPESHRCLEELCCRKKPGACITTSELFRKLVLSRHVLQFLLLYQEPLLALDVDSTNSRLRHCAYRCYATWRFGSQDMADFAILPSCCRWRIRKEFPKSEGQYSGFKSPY
Description: Agonist-induced pore formation was determined by measuring cellular uptake of YO PRO fluorescence dye in HEK293 transfected with human P2X7 receptor. A HEK293 cell over expressing human P2X7 was harvested using HQTase reagent to detach the cells from T75 cm flask. The harvested cells are centrifuged @ 1200 rpm for 5 min at room temperature. The viability of cells was determined by Trypan blue dye and the cells are plated @ 10,000 cell/well in 50 ul volume in a 384 W BD Poly lysine coated plate and incubated overnight at 37 C. After overnight incubation, the culture medium was replaced with 35 ul/well assay buffer (5 mM KCl, 0.1 mM CaCl2, 5 mM Glucose, 10 mM HEPES buffer pH7.4 containing 125 mM NaCl. The serial dilution of compounds was performed using Bravo liquid handling instrument and the compounds were added using Bravo to the cell assay plate starting at 2.5 uM with three dilutions for 10 points. The positive control inhibitor compound was added to column 23. The plate was shaken slowly on a plate shaker for 10 seconds. The cells were incubated with the compound for 20 minutes at room temperature. After the incubation period, YO PRO dye (1 uM) along with BzATP (10 uM) were added to cells at 10 ul/well. The plate was centrifuged at 1000 rpm for 5 seconds and incubated at room temperature for 30 minutes. The uptake of YO PRO dye into the cells was measured using Envision Fluorescence plate reader instrument (Perkin Elmer).

P2X7 [2] = target: T1, P2X7; assay: IL-1β release assay in THP-1 cells (sandwich ELISA); type: cell-based; design: release of mature IL-1β in the culture medium of THP-1 cells; endogenous in cells; host or cells: THP-1 cells (PMA-differentiated, LPS-primed); details: PMA, LPS primed, stimulated with 0.8 mM BzATP, mature IL-1β release, read-out: hTHP-1/IL-ib IC50
Description: The activation of P2X7 by ATP leads to a fast transient activation of cells resulting in influx of Ca^2+ followed by conversion of pro-IL-1β to active IL-1β. The functional activity of P2X7 compounds was measured by the release of mature IL-1β in the culture medium of THP-1 cells, detected by sandwich ELISA. Cells were maintained in complete growth medium (RPMI 1640+10% HI-FCS+2 mM L-glutamine+1×PS). […] THP-1 cells were harvested from the flask in 50 ml by centrifugation for 3 min at 100 g. The cells were resuspended to 2×10^5 cells/ml in medium supplemented with 0.5 μM PMA and incubated. The cells were washed and resuspended to 1.5×10^5 cells/ml in medium complemented with 10 ng/ml LPS, and the cells were primed for 4 h at 37° C., 5% CO2. After addition of 20 μL of prediluted test compounds, blank, standard and control reagents, cells were incubated for a further 20 min at 37° C. and stimulated with 0.8 mM BzATP for 30 minutes. The cells were centrifuged, supernatant was collected and the presence of mature IL-1β was detected using Dual human IL-1b kit following manufacturer's instruction. The tetrahydrobenzodiazepine analogs effectively modulated the activity of P2X7 in the cells as measured by the levels of pro-inflammatory cytokine IL-1β, which is released by the activation of P2X7 receptor.

Compound	pIC50 (P2X7 [1])	pIC50 (P2X7 [2])
C[C@@H]1CCC[C@](O)(CNC(=O)c2c(Cl)ccc3nc(N4CCC(F)(F)C4)ccc23)C1 [Compound 10, 6-Chloro-2-(3,3-difluoropyrrolidin-1-yl)-quinoline-5-carboxylic acid ((1R,3R)-1-hydroxy-3-methyl-cyclohexylmethyl)-amide]	> 8.00	7.00 to 8.00
O=C(NCC1CCC(F)(F)CC1)c1c(Cl)ccc2nc(N3CC[C@H](CCO)C3)ccc12 [Compound 11, 6-Chloro-2-((R)-3-hydroxyethyl-pyrrolidin-1-yl)-quinoline-5-carboxylic acid (4,4-difluoro-cyclohexylmethyl)-amide]	> 8.00	6.30 to 7.00
O=C(NCC1CCC(F)(F)CC1)c1c(Cl)ccc2nc(N3CC[C@@H](CO)C3)ccc12 [Compound 12, 6-Chloro-2-((R)-3-hydroxymethyl-pyrrolidin-1-yl)-quinoline-5-carboxylic acid (4,4-difluoro-cyclohexylmethyl)-amide]	> 8.00	6.30 to 7.00
C[C@@H]1CCC[C@](O)(CNC(=O)c2c(Cl)ccc3nc(N4CCC(N5CCCC5)C4)ccc23)C1 (stereo partly drawn) [Compound 13, 6-Chloro-2-(3-pyrrolidinyl-pyrrolidin-1-yl)-quinoline-5-carboxylic acid ((1R,3R)-1-hydroxy-3-methyl-cyclohexylmethyl)-amide]	> 8.00	> 8.00
CNC1CCN(c2ccc3c(C(=O)NCC4CCC(F)(F)CC4)c(Cl)ccc3n2)C1 (centres unmarked) [Compound 17, 6-Chloro-2-(3-methylamino-pyrrolidin-1-yl)-quinoline-5-carboxylic acid (4,4-difluoro-cyclohexylmethyl)-amide]	> 8.00	7.00 to 8.00
NC1CCN(c2ccc3c(C(=O)NCC4CCC(F)(F)CC4)c(Cl)ccc3n2)C1 (centres unmarked) [Compound 18]	> 8.00	7.00 to 8.00
O=C(NCC1CCC(F)(F)CC1)c1c(Cl)ccc2nc(C#CCO)ccc12 [Compound 19, 6-Chloro-2-(3-hydroxy-prop-1-ynyl)-quinoline-5-carboxylic acid (4,4-difluoro-cyclo hexylmethyl)-amide]	> 8.00	7.00 to 8.00
CN(C)[C@H]1CCN(c2ccc3c(C(=O)NCC4(O)CCC(F)(F)CC4)c(Cl)ccc3n2)C1 [Compound 20, 6-Chloro-2-((S)-3-dimethylamino-pyrrolidin-1-yl)-quinoline-5-carboxylic acid (4,4-difluoro-1-hydroxy-cyclohexylmethyl)-amide]	7.00 to 8.00	7.00 to 8.00
O=C(NCC1CCC(F)(F)CC1)c1c(Cl)ccc2nc(N3CCC(NCCO)C3)ccc12 (centres unmarked) [Compound 21]	7.00 to 8.00	7.00 to 8.00
CN(C)[C@@H]1CCN(c2ccc3c(C(=O)NCC4(O)CCC(F)(F)CC4)c(Cl)ccc3n2)C1 [Compound 23, 6-Chloro-2-((R)-3-dimethylamino-pyrrolidin-1-yl)-quinoline-5-carboxylic acid (4,4-difluoro-1-hydroxy-cyclohexylmethyl)-amide]	7.00 to 8.00	7.00 to 8.00
O=C(NC[C@@]1(O)CCCC(F)(F)C1)c1c(Cl)ccc2nc(N3CCC(F)(F)C3)ccc12 [Compound 24, 6-Chloro-2-(3,3-difluoropyrrolidin-1-yl)-quinoline-5-carboxylic acid ((R)-3,3-difluoro-1-hydroxycyclohexylmethyl)-amide]	7.00 to 8.00	7.00 to 8.00
O=C(NCC1(O)CCCCCC1)c1c(Cl)ccc2nc(N3CCCC3)ccc12 [Compound 25]	7.00 to 8.00	7.00 to 8.00
O=C(NCC1CCC(F)(F)CC1)c1c(Cl)ccc2nc(N3CC[C@@H](CCO)C3)ccc12 [Compound 26, 6-Chloro-2-((S)-3-hydroxyethyl-pyrrolidin-1-yl)-quinoline-5-carboxylic acid (4,4-difluoro-cyclohexylmethyl)-amide]	7.00 to 8.00	6.30 to 7.00
O=C(NCC1(O)CCC(F)(F)CC1)c1c(Cl)ccc2nc(N3CCC(N4CCCC4)C3)ccc12 (centres unmarked) [Compound 27, 6-Chloro-2-(3-pyrrolidinyl-pyrrolidin-1-yl)-quinoline-5-carboxylic acid (4,4-difluoro-1-hydroxy-cyclohexylmethyl)-amide]	7.00 to 8.00	7.00 to 8.00
CN(C)C1CCN(c2ccc3c(C(=O)NCC4(O)CCC(F)(F)CC4)c(Cl)ccc3n2)C1 (centres unmarked) [Compound 28, 6-Chloro-2-(3-dimethylamino-pyrrolidin-1-yl)-quinoline-5-carboxylic acid (4,4-difluoro-1-hydroxy-cyclohexylmethyl)-amide]	7.00 to 8.00	7.00 to 8.00
O=C(NCC1CCC(F)(F)CC1)c1c(Cl)ccc2nc(N3CC[C@H](CO)C3)ccc12 [Compound 29, 6-Chloro-2-((S)-3-hydroxymethyl-pyrrolidin-1-yl)-quinoline-5-carboxylic acid (4,4-difluoro-cyclohexylmethyl)-amide]	7.00 to 8.00	7.00 to 8.00
O=C(NCC1CCC(F)(F)CC1)c1c(Cl)ccc2nc(N3CCC(N4CCCC4)C3)ccc12 (centres unmarked) [Compound 30, 6-Chloro-2-(3-pyrrolidinyl-pyrrolidin-1-yl)-quinoline-5-carboxylic acid (4,4-difluoro-cyclohexylmethyl)-amide]	7.00 to 8.00	7.00 to 8.00
O=C(NCC1CCC(F)(F)CC1)c1c(Cl)ccc2nc(C3=CCOCC3)ccc12 [Compound 31, 6-Chloro-2-(3,6-dihydro-2H-pyran-4-yl)-quinoline-5-carboxylic acid (4,4-difluoro-cyclo hexyl methyl)-amide]	7.00 to 8.00	6.30 to 7.00
NC1CCN(c2ccc3c(C(=O)NCC4(O)CCCC(F)(F)C4)c(Cl)ccc3n2)C1 (centres unmarked) [Compound 32, 2-(3-Aminopyrrolidin-1-yl)-6-chloro-quinoline-5-carboxylic acid (3,3-difluoro-1-hydroxycyclohexylmethyl)-amide]	7.00 to 8.00	7.00 to 8.00
O=C(NCC1CCC(F)(F)CC1)c1c(Cl)ccc2nc(N3CC[C@@H](F)C3)ccc12 [Compound 33, 6-Chloro-2-((R)-3-fluoropyrrolidin-1-yl)-quinoline-5-carboxylic acid (4,4-difluoro-cyclohexylmethyl)-amide]	7.00 to 8.00	6.30 to 7.00
O=C(NCC1CCCC(F)(F)C1)c1c(Cl)ccc2nc(N3CCC(N4CCCC4)C3)ccc12 (centres unmarked) [Compound 34, 6-Chloro-2-(3-pyrrolidinyl-pyrrolidin-1-yl)-quinoline-5-carboxylic acid (3,3-difluoro-cyclohexylmethyl)-amide]	7.00 to 8.00	7.00 to 8.00
O=C(NCC1CCCC(F)(F)C1)c1c(Cl)ccc2nc(N3CCC(CO)C3)ccc12 (centres unmarked) [Compound 35, 6-Chloro-2-(3-hydroxymethylpyrrolidin-1-yl)-quinoline-5-carboxylic acid (3,3-difluoro-cyclohexylmethyl)-amide]	7.00 to 8.00	7.00 to 8.00
